Key:
[1] = target: T1, Polyamine deacetylase HDAC10 (Homo sapiens, UniProt Q969S8); assay: Inhibition of HDAC10
T1 sequence (Q969S8 whole entry): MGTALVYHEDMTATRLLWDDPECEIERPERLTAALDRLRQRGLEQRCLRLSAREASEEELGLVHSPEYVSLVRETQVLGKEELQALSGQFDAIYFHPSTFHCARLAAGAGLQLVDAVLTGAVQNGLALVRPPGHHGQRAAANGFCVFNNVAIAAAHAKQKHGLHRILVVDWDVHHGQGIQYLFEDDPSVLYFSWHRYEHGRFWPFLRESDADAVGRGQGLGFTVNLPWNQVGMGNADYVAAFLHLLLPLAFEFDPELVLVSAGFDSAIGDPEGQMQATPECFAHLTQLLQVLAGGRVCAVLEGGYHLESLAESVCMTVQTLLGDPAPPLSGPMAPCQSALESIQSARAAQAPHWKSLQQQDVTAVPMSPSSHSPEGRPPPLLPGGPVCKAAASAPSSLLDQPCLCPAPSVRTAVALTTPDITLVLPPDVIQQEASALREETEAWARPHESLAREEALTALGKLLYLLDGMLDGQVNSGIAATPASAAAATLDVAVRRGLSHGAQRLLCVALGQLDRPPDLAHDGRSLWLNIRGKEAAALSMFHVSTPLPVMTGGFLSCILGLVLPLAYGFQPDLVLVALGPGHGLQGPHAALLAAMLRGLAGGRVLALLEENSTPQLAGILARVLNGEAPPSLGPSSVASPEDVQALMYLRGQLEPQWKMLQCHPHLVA

Histone deacetylase 7 = target: T2, Histone deacetylase 7 (Homo sapiens, UniProt Q8WUI4); assay: Inhibition of HDAC7
T2 sequence (Q8WUI4 whole entry): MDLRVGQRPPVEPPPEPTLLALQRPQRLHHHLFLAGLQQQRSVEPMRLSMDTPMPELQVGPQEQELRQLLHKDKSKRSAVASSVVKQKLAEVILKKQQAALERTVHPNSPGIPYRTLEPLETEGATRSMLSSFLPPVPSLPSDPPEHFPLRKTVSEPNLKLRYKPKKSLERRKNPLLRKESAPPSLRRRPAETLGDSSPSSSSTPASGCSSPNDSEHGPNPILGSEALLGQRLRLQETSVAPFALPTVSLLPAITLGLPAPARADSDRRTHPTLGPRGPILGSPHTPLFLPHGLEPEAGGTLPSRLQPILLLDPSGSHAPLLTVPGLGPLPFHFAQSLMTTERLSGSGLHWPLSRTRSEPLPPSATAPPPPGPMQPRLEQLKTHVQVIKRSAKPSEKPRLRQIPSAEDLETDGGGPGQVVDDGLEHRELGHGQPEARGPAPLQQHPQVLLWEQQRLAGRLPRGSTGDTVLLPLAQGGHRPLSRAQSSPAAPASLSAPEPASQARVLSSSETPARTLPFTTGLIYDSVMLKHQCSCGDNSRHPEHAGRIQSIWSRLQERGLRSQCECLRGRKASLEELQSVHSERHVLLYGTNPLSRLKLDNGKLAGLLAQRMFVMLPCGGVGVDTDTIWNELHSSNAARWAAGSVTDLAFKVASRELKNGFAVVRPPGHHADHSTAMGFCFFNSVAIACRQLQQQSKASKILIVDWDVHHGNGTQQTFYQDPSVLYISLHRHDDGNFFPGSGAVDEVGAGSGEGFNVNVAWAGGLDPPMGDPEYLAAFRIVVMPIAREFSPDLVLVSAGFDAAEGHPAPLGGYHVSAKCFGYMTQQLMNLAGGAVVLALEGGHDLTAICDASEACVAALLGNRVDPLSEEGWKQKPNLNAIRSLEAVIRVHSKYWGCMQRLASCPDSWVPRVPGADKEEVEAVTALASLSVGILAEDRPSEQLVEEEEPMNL

Histone deacetylase 3 = Histone deacetylase 3 (Homo sapiens, UniProt O15379); assay: Inhibition of HDAC3
Histone deacetylase 3, sequence (O15379 whole entry): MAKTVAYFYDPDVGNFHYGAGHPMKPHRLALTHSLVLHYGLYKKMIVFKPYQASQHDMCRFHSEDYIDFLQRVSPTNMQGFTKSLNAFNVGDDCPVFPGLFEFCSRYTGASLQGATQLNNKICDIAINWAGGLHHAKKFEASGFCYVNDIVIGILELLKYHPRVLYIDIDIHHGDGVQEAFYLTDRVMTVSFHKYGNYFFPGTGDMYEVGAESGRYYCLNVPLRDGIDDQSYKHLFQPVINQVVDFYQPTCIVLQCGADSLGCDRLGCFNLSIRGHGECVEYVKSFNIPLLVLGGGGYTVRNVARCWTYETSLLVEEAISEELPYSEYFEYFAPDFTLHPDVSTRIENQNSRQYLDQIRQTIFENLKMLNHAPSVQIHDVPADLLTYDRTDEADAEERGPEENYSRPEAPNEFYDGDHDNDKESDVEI

Histone deacetylase 5 = Histone deacetylase 5 (Homo sapiens, UniProt Q9UQL6); assay: Inhibition of HDAC5
Histone deacetylase 5, sequence (Q9UQL6 whole entry): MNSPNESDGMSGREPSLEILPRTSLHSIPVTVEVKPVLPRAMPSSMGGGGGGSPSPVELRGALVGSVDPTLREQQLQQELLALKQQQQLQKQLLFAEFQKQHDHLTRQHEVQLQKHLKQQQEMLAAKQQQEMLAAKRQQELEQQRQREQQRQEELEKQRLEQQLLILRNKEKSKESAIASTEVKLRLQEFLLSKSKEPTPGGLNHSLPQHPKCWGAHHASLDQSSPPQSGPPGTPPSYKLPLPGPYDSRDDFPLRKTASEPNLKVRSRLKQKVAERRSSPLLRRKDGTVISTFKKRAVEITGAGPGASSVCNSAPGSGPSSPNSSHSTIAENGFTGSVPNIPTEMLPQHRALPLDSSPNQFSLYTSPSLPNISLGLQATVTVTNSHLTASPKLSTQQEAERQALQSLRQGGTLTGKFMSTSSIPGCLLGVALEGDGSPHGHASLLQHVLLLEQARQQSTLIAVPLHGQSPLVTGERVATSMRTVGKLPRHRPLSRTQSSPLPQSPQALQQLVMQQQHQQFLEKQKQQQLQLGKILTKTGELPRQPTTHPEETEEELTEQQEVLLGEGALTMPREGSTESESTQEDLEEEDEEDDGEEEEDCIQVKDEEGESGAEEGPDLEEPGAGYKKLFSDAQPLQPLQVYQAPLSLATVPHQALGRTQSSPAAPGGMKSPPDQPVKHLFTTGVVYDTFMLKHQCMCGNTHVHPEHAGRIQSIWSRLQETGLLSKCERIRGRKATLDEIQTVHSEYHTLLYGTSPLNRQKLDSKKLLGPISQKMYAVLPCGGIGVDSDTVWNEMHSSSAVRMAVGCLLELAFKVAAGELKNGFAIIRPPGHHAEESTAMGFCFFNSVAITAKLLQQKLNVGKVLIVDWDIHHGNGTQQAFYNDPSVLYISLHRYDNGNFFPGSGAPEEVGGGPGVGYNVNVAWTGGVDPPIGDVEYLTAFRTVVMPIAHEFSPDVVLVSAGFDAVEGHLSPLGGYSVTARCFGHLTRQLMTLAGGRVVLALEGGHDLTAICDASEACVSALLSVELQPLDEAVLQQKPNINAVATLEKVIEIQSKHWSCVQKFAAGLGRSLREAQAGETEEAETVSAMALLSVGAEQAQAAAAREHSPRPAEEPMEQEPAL

Histone deacetylase 9 = Histone deacetylase 9 (Homo sapiens, UniProt Q9UKV0); assay: Inhibition of HDAC9
Histone deacetylase 9, sequence (Q9UKV0 whole entry): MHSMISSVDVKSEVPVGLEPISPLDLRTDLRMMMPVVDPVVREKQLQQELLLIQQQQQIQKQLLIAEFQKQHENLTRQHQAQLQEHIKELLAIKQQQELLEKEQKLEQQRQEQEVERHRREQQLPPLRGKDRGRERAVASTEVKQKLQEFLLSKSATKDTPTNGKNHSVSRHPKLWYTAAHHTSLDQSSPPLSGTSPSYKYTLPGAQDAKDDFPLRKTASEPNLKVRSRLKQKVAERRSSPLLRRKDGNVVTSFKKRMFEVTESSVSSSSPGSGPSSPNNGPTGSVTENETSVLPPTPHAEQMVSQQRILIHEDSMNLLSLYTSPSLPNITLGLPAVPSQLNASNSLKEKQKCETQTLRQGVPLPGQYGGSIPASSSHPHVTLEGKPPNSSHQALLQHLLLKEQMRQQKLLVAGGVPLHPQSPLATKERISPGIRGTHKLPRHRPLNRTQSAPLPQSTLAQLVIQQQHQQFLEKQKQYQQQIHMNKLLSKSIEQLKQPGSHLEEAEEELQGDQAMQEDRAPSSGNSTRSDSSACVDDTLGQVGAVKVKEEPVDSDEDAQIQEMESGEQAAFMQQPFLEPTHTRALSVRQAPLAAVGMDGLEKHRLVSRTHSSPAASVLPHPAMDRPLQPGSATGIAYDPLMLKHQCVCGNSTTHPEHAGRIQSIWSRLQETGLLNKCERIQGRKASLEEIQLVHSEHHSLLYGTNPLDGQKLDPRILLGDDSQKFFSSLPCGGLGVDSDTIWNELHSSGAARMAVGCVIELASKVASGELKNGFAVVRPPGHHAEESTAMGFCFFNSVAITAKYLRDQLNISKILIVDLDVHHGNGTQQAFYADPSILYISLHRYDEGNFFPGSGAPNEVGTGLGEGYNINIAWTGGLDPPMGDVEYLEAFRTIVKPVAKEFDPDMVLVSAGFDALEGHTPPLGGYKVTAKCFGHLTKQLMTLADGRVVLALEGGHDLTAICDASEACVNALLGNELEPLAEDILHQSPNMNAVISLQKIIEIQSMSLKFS

Histone deacetylase 2 = Histone deacetylase 2 (Homo sapiens, UniProt Q92769); assay: Inhibition of HDAC2
Histone deacetylase 2, sequence (Q92769 whole entry): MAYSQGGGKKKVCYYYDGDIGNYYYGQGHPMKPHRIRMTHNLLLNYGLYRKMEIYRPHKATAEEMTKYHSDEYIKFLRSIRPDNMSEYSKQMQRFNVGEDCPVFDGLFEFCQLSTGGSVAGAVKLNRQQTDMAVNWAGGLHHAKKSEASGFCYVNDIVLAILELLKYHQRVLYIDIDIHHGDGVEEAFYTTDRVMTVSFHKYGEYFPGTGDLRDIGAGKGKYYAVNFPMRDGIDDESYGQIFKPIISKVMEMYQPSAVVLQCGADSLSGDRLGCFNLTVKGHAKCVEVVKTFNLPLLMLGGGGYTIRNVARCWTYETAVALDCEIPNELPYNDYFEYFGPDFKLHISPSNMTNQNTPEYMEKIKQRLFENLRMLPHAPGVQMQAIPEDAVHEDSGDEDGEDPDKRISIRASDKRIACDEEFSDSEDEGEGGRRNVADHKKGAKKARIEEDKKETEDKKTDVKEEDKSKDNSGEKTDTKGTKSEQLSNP

[2] = target: T3, Protein deacetylase HDAC6 (Homo sapiens, UniProt Q9UBN7); assay: Inhibition of HDAC6
T3 sequence (Q9UBN7 whole entry): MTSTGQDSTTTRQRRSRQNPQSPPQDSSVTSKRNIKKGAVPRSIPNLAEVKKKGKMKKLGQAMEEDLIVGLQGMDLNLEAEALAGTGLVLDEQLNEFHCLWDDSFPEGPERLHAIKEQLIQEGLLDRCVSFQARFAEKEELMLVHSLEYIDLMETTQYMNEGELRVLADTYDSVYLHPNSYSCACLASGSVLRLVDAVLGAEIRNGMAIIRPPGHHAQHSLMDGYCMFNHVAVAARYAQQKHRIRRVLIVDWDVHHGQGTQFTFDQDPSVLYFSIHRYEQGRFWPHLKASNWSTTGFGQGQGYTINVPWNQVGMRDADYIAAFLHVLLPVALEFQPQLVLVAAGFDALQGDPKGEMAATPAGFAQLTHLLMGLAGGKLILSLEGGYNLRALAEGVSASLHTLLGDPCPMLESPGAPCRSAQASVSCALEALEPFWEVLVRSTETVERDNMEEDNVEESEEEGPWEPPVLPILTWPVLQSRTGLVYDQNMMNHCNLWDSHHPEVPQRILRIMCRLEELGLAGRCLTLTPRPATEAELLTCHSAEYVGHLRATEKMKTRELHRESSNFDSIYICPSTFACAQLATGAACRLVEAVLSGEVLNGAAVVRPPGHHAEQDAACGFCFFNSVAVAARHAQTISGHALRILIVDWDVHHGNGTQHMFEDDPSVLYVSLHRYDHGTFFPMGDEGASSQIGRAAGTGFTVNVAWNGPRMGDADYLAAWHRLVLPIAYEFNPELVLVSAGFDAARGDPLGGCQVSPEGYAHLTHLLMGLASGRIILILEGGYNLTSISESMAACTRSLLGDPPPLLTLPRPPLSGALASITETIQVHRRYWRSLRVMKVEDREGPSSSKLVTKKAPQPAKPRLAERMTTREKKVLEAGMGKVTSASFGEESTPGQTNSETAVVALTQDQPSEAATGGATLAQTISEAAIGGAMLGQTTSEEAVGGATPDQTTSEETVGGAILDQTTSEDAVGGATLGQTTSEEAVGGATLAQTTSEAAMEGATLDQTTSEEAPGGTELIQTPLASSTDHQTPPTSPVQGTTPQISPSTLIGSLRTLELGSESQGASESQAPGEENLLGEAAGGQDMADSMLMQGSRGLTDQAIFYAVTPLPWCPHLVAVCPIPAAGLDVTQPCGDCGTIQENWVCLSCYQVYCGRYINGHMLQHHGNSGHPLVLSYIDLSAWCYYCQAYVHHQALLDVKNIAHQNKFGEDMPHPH

Measured: IC50

NC(=O)c1ccccc1Nc1cccc(OCCc2ccccc2)c1
> 30 µM: all assays above

Source: ChEMBL document CHEMBL2150931, “Design, synthesis, and biological activity of a novel series of human sirtuin-2-selective inhibitors” (J Med Chem, 2012)
